Measured values as given in patent US5817692A, “Endoperoxides useful as antiparasitic agents” (priority 1996, dated 1998).
pIC50: −log10 of the molar value. Where two headings read alike, the source gives them in different places.

Assays:
Format in all cases: cell-based
L929 cells = test: cytotoxicity to L929 cells, MTT assay (viability and replication); parameters: Toxicity, Mean: unit not given here; conditions: L929 cells; for Toxicity, Mean: MTT; for inhibition at 0.1 µM / inhibition at 1 µM / inhibition at 10 µM / inhibition at 50 µM: Mus musculus, read-out: Toxicity, % of control (inhibition)
Method: Toxoplasma gondii is the causative agent of cerebral toxoplasmic encephalitis, an AIDS-related opportunistic infection. The biological activity of the endoperoxide JHU 2886 of the present invention was measured against Toxoplasma gondii cultured in L929 cells.
More specifically, the cytotoxicity of synthetic organic endoperoxide JHU 2886 was tested in L929 cells by measuring the viability and replication of exposed cells. The cytotoxicity of the compound to the cultured cells was measured using the MTT assay (Promega kit), according to the procedure of Carmichael et al. (18). MTT is an abbreviation for [3-(4,5-dimethylthiazol-2-yl)-2,5-dephenyltetrazolium bromide].
This compound is referred to as JHU 2886 in Table 1. In this experiment atovaquone and artemisinin were used as positive controls. Atovaquone is a broad-spectrum anti-infective drug having antimalarial and antitoxoplasmosis activity (19).
^1 The cytotoxicity of each compound for the cultured cells was
measured using the MTT assay (Promega kit) and inhibition of the […]

Toxoplasma gondii = test: inhibition of intracellular replication of T. gondii in infected L929 cells, uracil incorporation assay; parameters: Activity, Mean: unit not given here; conditions: for Activity, Mean: uracil incorporation; for inhibition at 0.1 µM / inhibition at 1 µM / inhibition at 10 µM / inhibition at 50 µM: Toxoplasma gondii, L929, read-out: Activity, % of control (inhibition)
Method: Toxoplasma gondii is the causative agent of cerebral toxoplasmic encephalitis, an AIDS-related opportunistic infection. The biological activity of the endoperoxide JHU 2886 of the present invention was measured against Toxoplasma gondii cultured in L929 cells. The inhibitory activity of the synthetic organic endoperoxide was tested by measuring the intracellular replication of T. gondii in infected L929 cells. The inhibition of the intracellular replication of T. gondii was determined using the uracil incorporation assay (20). […] This compound is referred to as JHU 2886 in Table 1. In this experiment atovaquone and artemisinin were used as positive controls. Atovaquone is a broad-spectrum anti-infective drug having antimalarial and antitoxoplasmosis activity (19). | measured using the MTT assay (Promega kit) and inhibition of the | intracellular replication of T. gondii was determined using the uracil | incorporation assay.

Plasmodium falciparum = test: antimalarial activity, tritiated-hypoxanthine incorporation assay in human red blood cells; conditions: Erythrocyte, read-out: IC50 (inhibition of 50% of the replication of Plasmodium falciparum)
Method: (§1) The protozoan Plasmodium falciparum is a causative agent of malaria, the single most critical infectious disease of mankind. The antimalarial activity of the endoperoxides was determined according to the method of Desjardins et al. (16) as modified by Milhous et al. (17). Briefly, the antimalarial activity of the endoperoxides was tested in a tritiated-hypoxanthine incorporation assay by determining the concentration of the test compound needed to inhibit 50% of the replication of Plasmodium falciparum (IC50) in human red blood cells.
It is particularly noted that JHU 2886 has an excellent therapeutic index (ratio of activity to toxicity). At 1 μM, JHU 2886 has a therapeutic index of 70/0, whereas at the same concentration artimisinin has a therapeutic index of 76/10 (7.6), and atovaquone has a therapeutic index of only 95/17 (5.6). […] The first two compounds are known while the following five are being disclosed for the first time. […] Compounds of this formula wherein Ar is p-FCH2 Ph or p-HOCH2 Ph and X is CH2 are also expected to be particularly useful. […]

P. falciparum NF54 = test: antimalarial activity, P. falciparum NF54 parasites in vitro; conditions: Plasmodium falciparum; P. falciparum NF54 parasites in vitro; read-out: Antimalarial Activity IC50
Method: as §1
Tables 4 and 5 show the structures and antimalarial activities of unsaturated and saturated bicyclic [2.2.2] endoperoxides of the invention. Compounds of this formula wherein R and R' are identical are particularly preferred. It is expected that compounds wherein R and R' are selected from the groups [drawing 33] will be especially useful. […]

C[C@@H]1CC[C@H]2[C@@H](C)C(=O)O[C@@H]3O[C@@]4(C)CC[C@@H]1[C@]32OO4 [Artemisinin] was tested, and the “Toxicity, Score” value (L929 cells; 24 hours, dose 0.1 μM) was 1 (≤20%), the “Toxicity, Mean” value (L929 cells; 24 hours, dose 0.1 μM) was 0.103 and the “Toxicity, Score” value (L929 cells; 24 hours, dose 1.0 μM) was 1 (≤20%). For the same molecule, the “Toxicity, Mean” value (L929 cells; 24 hours, dose 1.0 μM) was 0.101, the “Toxicity, Score” value (L929 cells; 24 hours, dose 10.0 μM) was 1 (≤20%) and the “Toxicity, Mean” value (L929 cells; 24 hours, dose 10.0 μM) was 0.104. The “Toxicity, Score” value (L929 cells; 24 hours, dose 50.0 μM) was 1 (≤20%), the “Toxicity, Mean” value (L929 cells; 24 hours, dose 50.0 μM) was 0.110 and the “Toxicity, Mean” value (L929 cells; 48 hours, dose 0.1 μM) was 0.213. The “Toxicity, Score” value (L929 cells; 48 hours, dose 1.0 μM) was 1 (≤20%), the “Toxicity, Mean” value (L929 cells; 48 hours, dose 1.0 μM) was 0.205 and the “Toxicity, Score” value (L929 cells; 48 hours, dose 10.0 μM) was 1 (≤20%). For the same molecule, the “Toxicity, Mean” value (L929 cells; 48 hours, dose 10.0 μM) was 0.195, the “Toxicity, Score” value (L929 cells; 48 hours, dose 50.0 μM) was 1 (≤20%) and the “Toxicity, Mean” value (L929 cells; 48 hours, dose 50.0 μM) was 0.193. The “Toxicity, Mean” value (L929 cells; 72 hours, dose 0.1 μM) was 0.460, the “Toxicity, Score” value (L929 cells; 72 hours, dose 1.0 μM) was 1 (≤20%) and the “Toxicity, Mean” value (L929 cells; 72 hours, dose 1.0 μM) was 0.394. For the same molecule, the “Toxicity, Score” value (L929 cells; 72 hours, dose 10.0 μM) was 1 (≤20%), the “Toxicity, Mean” value (L929 cells; 72 hours, dose 10.0 μM) was 0.354 and the “Toxicity, Score” value (L929 cells; 72 hours, dose 50.0 μM) was 2 (>20%-≤40%). The “Toxicity, Mean” value (L929 cells; 72 hours, dose 50.0 μM) was 0.348, the inhibition at 0.1 µM (L929 cells; 24 hours, dose 0.1 μM) was 8.56% and the inhibition at 1 µM (L929 cells; 24 hours, dose 1.0 μM) was 10.3%. The inhibition at 10 µM (L929 cells; 24 hours, dose 10.0 μM) was 7.67%, the inhibition at 50 µM (L929 cells; 24 hours, dose 50.0 μM) was 2.36% and the inhibition at 0.1 µM (L929 cells; 48 hours, dose 0.1 μM) was 0%. It also gave an inhibition at 1 µM (L929 cells; 48 hours, dose 1.0 μM) of 3.75%, an inhibition at 10 µM (L929 cells; 48 hours, dose 10.0 μM) of 8.44% and an inhibition at 50 µM (L929 cells; 48 hours, dose 50.0 μM) of 9.53%. For the same molecule, the inhibition at 0.1 µM (L929 cells; 72 hours, dose 0.1 μM) was 0%, the inhibition at 1 µM (L929 cells; 72 hours, dose 1.0 μM) was 9.97% and the inhibition at 10 µM (L929 cells; 72 hours, dose 10.0 μM) was 19.2%. The inhibition at 50 µM (L929 cells; 72 hours, dose 50.0 μM) was 20.6%, the “therapeutic index (ratio of activity to toxicity), quotient” value (Toxoplasma gondii; 1 μM, T. gondii activity / L929 toxicity) was 7.6 and the “Activity, Score” value (Toxoplasma gondii; 24 hours, dose 0.1 μM) was 2 (>20%-≤40%). For the same molecule, the “Activity, Mean” value (Toxoplasma gondii; 24 hours, dose 0.1 μM) was 10106, the “Activity, Score” value (Toxoplasma gondii; 24 hours, dose 1.0 μM) was 4 (>70%-≤90%) and the “Activity, Mean” value (Toxoplasma gondii; 24 hours, dose 1.0 μM) was 3467. For the same molecule, the “Activity, Score” value (Toxoplasma gondii; 24 hours, dose 10.0 μM) was 4 (>70%-≤90%), the “Activity, Mean” value (Toxoplasma gondii; 24 hours, dose 10.0 μM) was 3470 and the “Activity, Score” value (Toxoplasma gondii; 24 hours, dose 50.0 μM) was 4 (>70%-≤90%). For the same molecule, the “Activity, Mean” value (Toxoplasma gondii; 24 hours, dose 50.0 μM) was 33322, the “Activity, Score” value (Toxoplasma gondii; 48 hours, dose 0.1 μM) was 1 (≤20%) and the “Activity, Mean” value (Toxoplasma gondii; 48 hours, dose 0.1 μM) was 15440. For the same molecule, the “Activity, Score” value (Toxoplasma gondii; 48 hours, dose 1.0 μM) was 3 (>40%-≤70%), the “Activity, Mean” value (Toxoplasma gondii; 48 hours, dose 1.0 μM) was 6101 and the “Activity, Score” value (Toxoplasma gondii; 48 hours, dose 10.0 μM) was 4 (>70%-≤90%). For the same molecule, the “Activity, Mean” value (Toxoplasma gondii; 48 hours, dose 10.0 μM) was 4225, the “Activity, Score” value (Toxoplasma gondii; 48 hours, dose 50.0 μM) was 4 (>70%-≤90%) and the “Activity, Mean” value (Toxoplasma gondii; 48 hours, dose 50.0 μM) was 4167. The “Activity, Score” value (Toxoplasma gondii; 72 hours, dose 0.1 μM) was 0, the “Activity, Mean” value (Toxoplasma gondii; 72 hours, dose 0.1 μM) was 8253 and the “Activity, Score” value (Toxoplasma gondii; 72 hours, dose 1.0 μM) was 4 (>70%-≤90%). The “Activity, Mean” value (Toxoplasma gondii; 72 hours, dose 1.0 μM) was 1976, the “Activity, Score” value (Toxoplasma gondii; 72 hours, dose 10.0 μM) was 4 (>70%-≤90%) and the “Activity, Mean” value (Toxoplasma gondii; 72 hours, dose 10.0 μM) was 783. For the same molecule, the “Activity, Score” value (Toxoplasma gondii; 72 hours, dose 50.0 μM) was 4 (>70%-≤90%), the “Activity, Mean” value (Toxoplasma gondii; 72 hours, dose 50.0 μM) was 813 and the inhibition at 0.1 µM (Toxoplasma gondii; 24 hours, dose 0.1 μM) was 29.6%. For the same molecule, the inhibition at 1 µM (Toxoplasma gondii; 24 hours, dose 1.0 μM) was 75.8%, the inhibition at 10 µM (Toxoplasma gondii; 24 hours, dose 10.0 μM) was 75.8% and the inhibition at 50 µM (Toxoplasma gondii; 24 hours, dose 50.0 μM) was 76.8%. It also gave an inhibition at 0.1 µM (Toxoplasma gondii; 48 hours, dose 0.1 μM) of 10.4%, an inhibition at 1 µM (Toxoplasma gondii; 48 hours, dose 1.0 μM) of 64.6% and an inhibition at 10 µM (Toxoplasma gondii; 48 hours, dose 10.0 μM) of 75.5%. It also gave an inhibition at 50 µM (Toxoplasma gondii; 48 hours, dose 50.0 μM) of 75.8%, an inhibition at 0.1 µM (Toxoplasma gondii; 72 hours, dose 0.1 μM) of -14.1% and an inhibition at 1 µM (Toxoplasma gondii; 72 hours, dose 1.0 μM) of 72.7%. It also gave an inhibition at 10 µM (Toxoplasma gondii; 72 hours, dose 10.0 μM) of 89.2%, an inhibition at 50 µM (Toxoplasma gondii; 72 hours, dose 50.0 μM) of 88.8% and a pIC50 (Plasmodium falciparum) of 7.96. The pIC50 (P. falciparum NF54) was 7.96.
